# From patent publication US12414948B2, “Methods” (INTRA-CELLULAR THERAPIES, INC., priority 2022, dated 2025)
# What was measured:
# [1] = test system: hippocampal gene expression (NanoString gene sets and genes); experiment: NanoString nCounter hippocampal gene expression after co-injection of LPS and lumateperone; format: in vivo, mouse
# From the text: NanoString. The mouse neuropathology panel includes 770 genes associated with themes of neurotransmission, neuron-glia interaction, neuroplasticity, cell structure integrity, neuroinflammation and metabolism. A total of 13 housekeeping genes are used for expression normalization (Aars: NM_146217.4, Asb10: NM_080444.4, Ccdc127: NM_024201.3, Cnot10: NM_153585.5, Csnk2a2: NM_009974.3, Fam104a: NM_138598.5, Gusb: NM_010368.1, Lars: NM_134137.2, Mto1: NM_026658.2, Supt7l: NM_028150.1, Tada2b: NM_001170454.1:3224, Tbp: NM_013684.3:70, and Xpnpep1: NM_133216.3:1826, see FIG. 1-1). Hippocampal RNA is extracted using the Qiagen microkit (Qiagen) and is evaluated by the Agilent 2100 Bioanalyzer (Agilent Technologies, Santa Clara, CA) to assess RNA concentration, quality, and integrity. Sample preparation, hybridization, and detection (100 ng per sample, n=5-6 per group) are carried out according to NanoString manufacturer's instructions (NanoString Technologies, Seattle, WA). The normalized data are transformed to log 2 score to express the fold change. NanoString results (raw and normalized counts) are derived from RCC files using the nSolver software (version 2.6; NanoString Technologies). A complementary gene software analysis tool, ROSALIND® Advanced Analysis Software (NanoString Technologies), is also used, which provides comprehensive free cloud-based data analysis for nCounter data by directly analyzing raw RCC files generated from NanoString. Data are imported into ROSALIND® Advanced Analysis Software for normalization, calculation of fold-changes, P values, identification of enriched pathways, and heatmaps.
# It is calculated similarly to a undirected global significance score, but it takes into account the sign of the t-statistic. Scores were calculated by nSolver software, using the control group as a reference.
# [2] = test system: serum cytokines IL-1b, IL-6, TNF-alpha, IL-10; experiment: Serum cytokine protein (Multiplex MSD V-Plex) after LPS and lumateperone; format: in vivo, mouse; conditions: 2 h
# Procedure: All other reagents are obtained in the highest purity available from Sigma-Aldrich (St. Louis, MO) unless otherwise noted. […] Some rodents are given a cotreatment with a subcutaneous (SC) injection of lipopolysaccharide (LPS, 500 μg/kg; Sigma-Aldrich, ref #0127:B8) diluted in 0.9% injectable saline while control group animals receive injections of all vehicles matching the experimental conditions. […] On day 2, either no injection for naïve rats, or saline or LPS is injected (1 mg/kg, SC).
# Tissue Collection. […] Rats are euthanized 18 hours after LPS injection for sample collection. Hippocampi from mice and rats are rapidly dissected under RNAse-free conditions and placed in 1.5 mL Eppendorf tubes. When appropriate, samples are snap frozen in liquid nitrogen prior to storage at −80° C. until further analysis. Trunk blood is collected from mice into serum collection tubes, allowed to clot at room temperature for 1 hour, then centrifuged at 1,500 g for 10 minutes at 4° C.
# Multiplex Assays. In mouse serum, protein levels of IL-1b, IL-6, IL-10 and TNF-alpha are measured using a V-Plex Meso Scale Discovery (MSD) Multiplex spot assay Mouse Neuroinflammation 1 panel (Meso Scale Diagnostics, Rockville, MD). All samples are run in duplicates or triplicates according to manufacturer instructions and analyzed with MSD Discovery Workbench software (Meso Scale Diagnostics).
# An additional experimental group receiving an injection with lumateperone alone is included as an additional control. Protein concentration is measured using the Multiplex MSD assay V-Plex technology. Results are expressed in pg/mL, except for IL-6, which is measured in ng/mL.
# [3] = LPS 500 μg/kg-challenged mice, hippocampus 2 h, label LPS = LPS alone, label Luma = LPS + Luma 3 mg/kg, vs control group
# [4] = mice, hippocampus 2 h, Luma 3 mg/kg alone (no LPS), vs control group
# [5] = LPS 500 μg/kg-challenged mice, label LPS = LPS alone, label Luma = LPS + Luma 3 mg/kg IP
compound,measurement,setting,value
"CN1CCN2c3c(cccc31)[C@@H]1CN(CCCC(=O)c3ccc(F)cc3)CC[C@@H]12 [Luma, lumateperone]",Directed global significance score: DNA damage,[1]; [3],0.042
same,Directed global significance score: Inflammatory signaling,[1]; [3],−0.93
same,Directed global significance score: Lipid metabolism,[1]; [3],0.89
same,Directed global significance score: Oligodendrocyte function,[1]; [3],0.48
same,"Genes that promote inflammation (e.g., Osmr, Tnfrsf1a, Tnfrsf11b, Prl, Il1r1), cytokine-specific gene expression","[1]; ROSALIND analysis, LPS+Luma versus LPS alone, filter P<0.04999, mice hippocampus",significantly downregulates
same,Directed global significance score: Adaptive immune response,[1]; [4],0.344
same,Directed global significance score: Angiogenesis,[1]; [4],0.616
same,Directed global significance score: Apoptosis,[1]; [4],−0.442
same,Directed global significance score: Astrocyte function,[1]; [4],−0.837
same,Directed global significance score: Autophagy,[1]; [4],−0.731
same,Directed global significance score: Carbohydrate metabolism,[1]; [4],−0.837
same,Directed global significance score: Cell cycle,[1]; [4],−0.75
same,Directed global significance score: Cellular stress,[1]; [4],−0.432
same,Directed global significance score: Cytokine signaling,[1]; [4],−0.543
same,Directed global significance score: DNA damage,[1]; [4],−0.614
same,Directed global significance score: Epigenetic regulation,[1]; [4],0.729
same,Directed global significance score: Growth factor signaling,[1]; [4],0.226
same,Directed global significance score: Inflammatory signaling,[1]; [4],−1.032
same,Directed global significance score: Innate immune response,[1]; [4],−0.611
same,Directed global significance score: Insulin signaling,[1]; [4],0.858
same,Directed global significance score: Lipid metabolism,[1]; [4],−0.818
same,Directed global significance score: Matrix remodeling,[1]; [4],−0.4
same,Directed global significance score: Microglia function,[1]; [4],0.466
same,Directed global significance score: Notch,[1]; [4],0.834
same,Directed global significance score: Oligodendrocyte function,[1]; [4],−1.176
same,Directed global significance score: Wnt,[1]; [4],0.9
same,Serum cytokine concentration IL-6,"[2]; mice, Luma 3 mg/kg IP alone (no LPS)",0.09 ng/mL
"lipopolysaccharide [LPS, reference compound]",Directed global significance score: Adaptive immune response,[1]; [3],0.571
same,Directed global significance score: Angiogenesis,[1]; [3],−0.144
same,Directed global significance score: Apoptosis,[1]; [3],0.915
same,Directed global significance score: Astrocyte function,[1]; [3],1.391
same,Directed global significance score: Autophagy,[1]; [3],0.588
same,Directed global significance score: Carbohydrate metabolism,[1]; [3],0.507
same,Directed global significance score: Cell cycle,[1]; [3],−0.148
same,Directed global significance score: Cellular stress,[1]; [3],0.499
same,Directed global significance score: Cytokine signaling,[1]; [3],0.993
same,Directed global significance score: DNA damage,[1]; [3],0.578
same,Directed global significance score: Epigenetic regulation,[1]; [3],0.312
same,Directed global significance score: Growth factor signaling,[1]; [3],0.76
same,Directed global significance score: Inflammatory signaling,[1]; [3],1.086
same,Directed global significance score: Innate immune response,[1]; [3],0.939
same,Directed global significance score: Insulin signaling,[1]; [3],0.28
same,Directed global significance score: Lipid metabolism,[1]; [3],−0.192
same,Directed global significance score: Matrix remodeling,[1]; [3],−0.583
same,Directed global significance score: Microglia function,[1]; [3],0.377
same,Directed global significance score: Neurons and neurotransmission,[1]; [3],−0.422
same,Directed global significance score: Notch,[1]; [3],0.876
same,Directed global significance score: Oligodendrocyte function,[1]; [3],0.181
same,Directed global significance score: Wnt,[1]; [3],−0.476
same,Serum cytokine concentration IL-1b,[2]; [5],6.27 pg/mL
same,Serum cytokine concentration IL-6,[2]; [5],14.52 ng/mL
same,Serum cytokine concentration IL-10,[2]; [5],980.4 pg/mL
same,Serum cytokine concentration TNF-alpha,[2]; [5],335.3 pg/mL
